Test: Glaze formation: dried on glass plate and scored with a knife
Assay type: physicochemical
Conditions: cellobiose alone, 10-320 mM, dried at 37° C.
Procedure: 100 μl of 10-320 mM (10, 20, 40, 80, 160, and 320 mM) cellobiose±1% w/v birchwood xylan was pipetted onto a glass plate. • 2. Samples were dried at 37° C. • 3. Samples were scored with a knife to test whether or not the ingredient settled into a solid glaze. […] With a cellobiose concentration of 160 mM or higher (5.5% w/v, or 550% w/w as compared with xylan) the morphology of the glaze reverted to that without xylan present.

Row | Glaze formation | SMILES
1 | no firm glaze was formed | O=C[C@H](O)[C@@H](O)[C@H](O[C@@H]1O[C@H](CO)[C@@H](O)[C@H](O)[C@H]1O)[C@H](O)CO [cellobiose]

Test: Flow characteristics: timed flow from a vertically stood syringe under gravity
Assay type: physicochemical
Conditions: syringe filled with 20 mL test liquid, room temperature
Procedure: The glucose solutions were made by weighing 6, 12, 18, and 24 g D-glucose respectively and making up with 90° C. water to 30 mL. The flow characteristics were measured by timing the flow rate of 5 mL, and where suitable, 20 mL of the liquids from a vertically stood syringe (BD Plastipak 300613) filled with 20 mL of test liquid under gravity at room temperature.
Sample were analyzed for flow characteristics as described in Example 9.

Row | Time for 5 mL flow | Time for 20 mL flow | SMILES
2 | 2.3 s | 13.5 s | O=C[C@H](O)[C@@H](O)[C@H](O)[C@H](O)CO [20% w/v glucose, D-glucose]
3 | 2.5 s | 15 s | O=C[C@H](O)[C@@H](O)[C@H](O)[C@H](O)CO [40% w/v glucose, D-glucose]
4 | 3 s | 20 s | O=C[C@H](O)[C@@H](O)[C@H](O)[C@H](O)CO [60% w/v glucose, D-glucose]
5 | 5 s | 38 s | O=C[C@H](O)[C@@H](O)[C@H](O)[C@H](O)CO [80% w/v glucose, D-glucose]

Source: US11771123B2, “Methods for treating biomass to produce oligosaccharides and related compositions” (Cambridge Glycoscience Ltd, priority 2019, dated 2023)
